Reference: BindingDB's records for doi:10.1016/j.bmcl.2014.03.017 (Alcon Laboratories, 2014)

Test: Inhibition of ROCK-2 in human GTM3 cells measured up to 2 days by cell impedance assay

EC50 [µM]	Structure (SMILES)
0.68	OCCN1CCN(c2nc(-c3ccncc3)cnc2N2CCCC2)CC1 [2-(4-(6-(pyridin-4-yl)-3-(pyrrolidin-1-yl)pyrazin-2-yl)piperazin-1-yl)ethanol]
1.5	CN(C)CC(O)CN1CCN(c2nc(-c3ccncc3)cnc2N2CCCC2)CC1 (configuration not stated)
0.26	c1cc2[nH]ncc2cc1-c1cncc(N2CCCNCC2)n1
0.38	Cc1n[nH]c2ccc(-c3cncc(N4CCCNCC4)n3)cc12
0.76	CC(=O)NCCCN1CCN(c2nc(-c3ccncc3)cnc2N2CCCC2)CC1
0.416	c1nc(N2CCCC2)c(N2CCCNCC2)nc1-c1cc2cn[nH]c2cn1
1.7	CC(=O)NCC(O)CN1CCN(c2nc(-c3ccncc3)cnc2N2CCCC2)CC1 (configuration not stated)
